Source: the NIST ThermoML archive (doi:10.1007/s10765-008-0410-4)

Assay: xn = mol fraction of the nth substance listed
Settings: Liquid, Vibrating tube method

CCCCn1cc[n+](C)c1.F[B-](F)(F)F [1-butyl-3-methylimidazolium tetrafluoroborate] + CCO
Settings | mass density [kg/m3]
348.15 K, 20740 kPa, x1 = 0.9152 | 1174.39
348.15 K, 20870 kPa, x1 = 1 | 1185.63
348.15 K, 21630 kPa, x1 = 0.3147 | 1023.15
348.15 K, 25140 kPa, x1 = 0.9152 | 1176.67
348.15 K, 25380 kPa, x1 = 0.0701 | 858.25
348.15 K, 25410 kPa, x1 = 0.7452 | 1149.62
348.15 K, 25430 kPa, x1 = 0.5384 | 1104.11
348.15 K, 25850 kPa, x1 = 1 | 1188.16
348.15 K, 26120 kPa, x1 = 0.3147 | 1025.95
348.15 K, 29980 kPa, x1 = 0.9152 | 1179.1
348.15 K, 30070 kPa, x1 = 0.7452 | 1152.07
348.15 K, 30110 kPa, x1 = 1 | 1190.19
348.15 K, 30220 kPa, x1 = 0.0701 | 861.8
348.15 K, 30550 kPa, x1 = 0.3147 | 1028.55
348.15 K, 30670 kPa, x1 = 0.5384 | 1107
348.15 K, 35070 kPa, x1 = 0.9152 | 1181.59
348.15 K, 35110 kPa, x1 = 1 | 1192.88
348.15 K, 35140 kPa, x1 = 0.7452 | 1154.63
348.15 K, 35170 kPa, x1 = 0.0701 | 865.16
348.15 K, 35620 kPa, x1 = 0.5384 | 1109.59
348.15 K, 35630 kPa, x1 = 0.3147 | 1031.33
348.15 K, 39560 kPa, x1 = 0.5384 | 1111.54
348.15 K, 39610 kPa, x1 = 1 | 1194.77
348.15 K, 39740 kPa, x1 = 0.9152 | 1183.8
348.15 K, 39940 kPa, x1 = 0.7452 | 1156.96
348.15 K, 40010 kPa, x1 = 0.3147 | 1033.56
348.15 K, 40030 kPa, x1 = 0.0701 | 868.18
373.15 K, 470 kPa, x1 = 1 | 1157.24
373.15 K, 510 kPa, x1 = 0.0701 | 812.28
373.15 K, 520 kPa, x1 = 0.7452 | 1117.1
373.15 K, 750 kPa, x1 = 0.5384 | 1069.65
373.15 K, 780 kPa, x1 = 0.9152 | 1145.53
373.15 K, 810 kPa, x1 = 0.3147 | 987.83
373.15 K, 5060 kPa, x1 = 0.5384 | 1072.77
373.15 K, 5090 kPa, x1 = 0.7452 | 1120.2
373.15 K, 5140 kPa, x1 = 0.9152 | 1148.26
373.15 K, 5350 kPa, x1 = 1 | 1160.25
373.15 K, 5790 kPa, x1 = 0.0701 | 818.18
373.15 K, 5820 kPa, x1 = 0.3147 | 992.08
373.15 K, 10070 kPa, x1 = 0.5384 | 1076.3
373.15 K, 10080 kPa, x1 = 1 | 1163.09
373.15 K, 10570 kPa, x1 = 0.9152 | 1151.58
373.15 K, 10610 kPa, x1 = 0.7452 | 1123.82
373.15 K, 10950 kPa, x1 = 0.3147 | 996.25
373.15 K, 11040 kPa, x1 = 0.0701 | 823.77
373.15 K, 15080 kPa, x1 = 0.9152 | 1154.27
373.15 K, 15130 kPa, x1 = 0.0701 | 827.92
373.15 K, 15340 kPa, x1 = 0.5384 | 1079.9
373.15 K, 15710 kPa, x1 = 1 | 1166.39
373.15 K, 15730 kPa, x1 = 0.3147 | 999.95
373.15 K, 15840 kPa, x1 = 0.7452 | 1127.11
373.15 K, 19860 kPa, x1 = 0.3147 | 1003.02
373.15 K, 20090 kPa, x1 = 0.7452 | 1129.7
373.15 K, 20540 kPa, x1 = 0.9152 | 1157.45
373.15 K, 20610 kPa, x1 = 0.5384 | 1083.37
373.15 K, 20970 kPa, x1 = 1 | 1169.38
373.15 K, 21220 kPa, x1 = 0.0701 | 833.79
373.15 K, 24670 kPa, x1 = 0.9152 | 1159.79
373.15 K, 25130 kPa, x1 = 0.0701 | 837.37
373.15 K, 25460 kPa, x1 = 0.7452 | 1132.84
373.15 K, 25820 kPa, x1 = 1 | 1172.07
373.15 K, 25930 kPa, x1 = 0.5384 | 1086.76
373.15 K, 25990 kPa, x1 = 0.3147 | 1007.35
373.15 K, 29760 kPa, x1 = 0.9152 | 1162.61
373.15 K, 30010 kPa, x1 = 0.5384 | 1089.27
373.15 K, 30070 kPa, x1 = 0.7452 | 1135.43
373.15 K, 30120 kPa, x1 = 1 | 1174.39
373.15 K, 30260 kPa, x1 = 0.0701 | 841.81
373.15 K, 30670 kPa, x1 = 0.3147 | 1010.47
373.15 K, 35030 kPa, x1 = 0.5384 | 1092.26
373.15 K, 35180 kPa, x1 = 0.7452 | 1138.19
373.15 K, 35220 kPa, x1 = 0.3147 | 1013.34
373.15 K, 35520 kPa, x1 = 0.0701 | 846.1
373.15 K, 35530 kPa, x1 = 1 | 1177.22
373.15 K, 36740 kPa, x1 = 0.9152 | 1166.35
373.15 K, 39820 kPa, x1 = 0.3147 | 1016.1
373.15 K, 39820 kPa, x1 = 1 | 1179.41
373.15 K, 39840 kPa, x1 = 0.0701 | 849.4
373.15 K, 39870 kPa, x1 = 0.9152 | 1167.99
373.15 K, 39920 kPa, x1 = 0.7452 | 1140.63
373.15 K, 39940 kPa, x1 = 0.5384 | 1095.08
398.15 K, 860 kPa, x1 = 0.9152 | 1128.45
398.15 K, 870 kPa, x1 = 1 | 1141.05
398.15 K, 920 kPa, x1 = 0.5384 | 1049.06
398.15 K, 940 kPa, x1 = 0.7452 | 1098.62
398.15 K, 960 kPa, x1 = 0.3147 | 966.26
398.15 K, 1010 kPa, x1 = 0.0701 | 788.85
398.15 K, 5060 kPa, x1 = 0.5384 | 1052.44
398.15 K, 5120 kPa, x1 = 0.7452 | 1101.74
398.15 K, 5750 kPa, x1 = 0.0701 | 795.42
398.15 K, 5840 kPa, x1 = 0.9152 | 1131.83
398.15 K, 6350 kPa, x1 = 0.3147 | 971.33
398.15 K, 6670 kPa, x1 = 1 | 1144.53
398.15 K, 9630 kPa, x1 = 0.9152 | 1134.36
398.15 K, 10070 kPa, x1 = 0.7452 | 1105.35
398.15 K, 10150 kPa, x1 = 0.0701 | 801.14
398.15 K, 10420 kPa, x1 = 0.5384 | 1056.68
398.15 K, 10490 kPa, x1 = 1 | 1147.07
398.15 K, 10930 kPa, x1 = 0.3147 | 975.46
398.15 K, 15030 kPa, x1 = 0.5384 | 1060.22
398.15 K, 15080 kPa, x1 = 0.7452 | 1108.88
398.15 K, 15110 kPa, x1 = 0.0701 | 807.16
398.15 K, 15620 kPa, x1 = 0.3147 | 979.51
398.15 K, 15730 kPa, x1 = 1 | 1150.32
398.15 K, 16470 kPa, x1 = 0.9152 | 1138.81
398.15 K, 19970 kPa, x1 = 0.5384 | 1063.89
398.15 K, 20040 kPa, x1 = 0.9152 | 1141.07
398.15 K, 20150 kPa, x1 = 0.3147 | 983.26
398.15 K, 20640 kPa, x1 = 0.7452 | 1112.68
398.15 K, 20740 kPa, x1 = 0.0701 | 813.42
398.15 K, 20980 kPa, x1 = 1 | 1153.78
398.15 K, 24980 kPa, x1 = 0.5384 | 1067.49
398.15 K, 25120 kPa, x1 = 0.9152 | 1144.22
398.15 K, 25130 kPa, x1 = 0.0701 | 817.89
398.15 K, 25140 kPa, x1 = 1 | 1156.3
398.15 K, 25170 kPa, x1 = 0.3147 | 987.21
398.15 K, 25370 kPa, x1 = 0.7452 | 1115.8
398.15 K, 30030 kPa, x1 = 0.5384 | 1070.98
398.15 K, 30280 kPa, x1 = 0.7452 | 1118.94
398.15 K, 30410 kPa, x1 = 0.3147 | 991.12
398.15 K, 30450 kPa, x1 = 0.9152 | 1147.45
398.15 K, 30850 kPa, x1 = 0.0701 | 823.16
398.15 K, 30890 kPa, x1 = 1 | 1159.52
398.15 K, 35070 kPa, x1 = 0.5384 | 1074.35
398.15 K, 35140 kPa, x1 = 0.7452 | 1121.93
398.15 K, 35160 kPa, x1 = 0.3147 | 994.46
398.15 K, 35740 kPa, x1 = 0.9152 | 1150.56
398.15 K, 35810 kPa, x1 = 1 | 1162.4
398.15 K, 35860 kPa, x1 = 0.0701 | 827.28
398.15 K, 39560 kPa, x1 = 1 | 1164.38
398.15 K, 39850 kPa, x1 = 0.3147 | 997.59
398.15 K, 39860 kPa, x1 = 0.9152 | 1152.93
398.15 K, 39920 kPa, x1 = 0.7452 | 1124.78
398.15 K, 39940 kPa, x1 = 0.5384 | 1077.48
398.15 K, 39990 kPa, x1 = 0.0701 | 830.32
